Data from PubChem BioAssay (NCI).
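Interpolation was linear, between the two tested concentrations surrounding the appropriate level; five concentrations were tested over 48 hours in 96-well plates. GI50: concentration for 50% inhibition of growth. TGI: concentration producing complete growth inhibition.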

Tests used:
Assay in all cases: NCI anticancer screen, dose series, 48 h
MDA-MB-231 breast = tested on: MDA-MB-231 breast
T-47D breast = tested on: T-47D breast
NCI-H226 lung = tested on: NCI-H226 lung
HS 578T breast = tested on: HS 578T breast
HL-60(TB) leukemia = tested on: HL-60(TB) leukemia
SK-MEL-2 melanoma = tested on: SK-MEL-2 melanoma
HOP-92 NSCLC = tested on: HOP-92 NSCLC
OVCAR-3 ovarian = tested on: OVCAR-3 ovarian
RPMI-8226 leukemia = tested on: RPMI-8226 leukemia
OVCAR-4 ovarian = tested on: OVCAR-4 ovarian
KM12 colon = tested on: KM12 colon
SF-268 CNS = tested on: SF-268 CNS
SK-OV-3 ovarian = tested on: SK-OV-3 ovarian
UACC-257 melanoma = tested on: UACC-257 melanoma
786-0 renal = tested on: 786-0 renal
UO-31 renal = tested on: UO-31 renal
NCI-H23 lung = tested on: NCI-H23 lung
PC-3 prostate = tested on: PC-3 prostate
A549 NSCLC = tested on: A549 NSCLC
DU-145 prostate = tested on: DU-145 prostate
LOX IMVI melanoma = tested on: LOX IMVI melanoma
SNB-75 CNS = tested on: SNB-75 CNS
COLO 205 colon = tested on: COLO 205 colon
MCF7 breast = tested on: MCF7 breast
SN12C renal = tested on: SN12C renal
HOP-62 NSCLC = tested on: HOP-62 NSCLC
NCI-H460 lung = tested on: NCI-H460 lung
HCT-116 colon = tested on: HCT-116 colon
SK-MEL-5 melanoma = tested on: SK-MEL-5 melanoma
SR leukemia = tested on: SR leukemia
SF-295 CNS = tested on: SF-295 CNS
ACHN renal = tested on: ACHN renal
NCI/ADR-RES ovarian = tested on: NCI/ADR-RES ovarian
RXF 393 renal = tested on: RXF 393 renal
CCRF-CEM leukemia = tested on: CCRF-CEM leukemia
MDA-MB-435 = tested on: MDA-MB-435
HCC-2998 colon = tested on: HCC-2998 colon
BT-549 breast = tested on: BT-549 breast
MOLT-4 leukemia = tested on: MOLT-4 leukemia
IGROV1 ovarian = tested on: IGROV1 ovarian
SK-MEL-28 melanoma = tested on: SK-MEL-28 melanoma
CAKI-1 renal = tested on: CAKI-1 renal
OVCAR-5 ovarian = tested on: OVCAR-5 ovarian
EKVX NSCLC = tested on: EKVX NSCLC
K-562 leukemia = tested on: K-562 leukemia
A498 renal = tested on: A498 renal
NCI-H522 lung = tested on: NCI-H522 lung
SF-539 CNS = tested on: SF-539 CNS
UACC-62 melanoma = tested on: UACC-62 melanoma
M14 melanoma = tested on: M14 melanoma
SW-620 colon = tested on: SW-620 colon
OVCAR-8 ovarian = tested on: OVCAR-8 ovarian
TK-10 renal = tested on: TK-10 renal
SNB-19 CNS = tested on: SNB-19 CNS

SMILES: Nc1nc(/C=C\c2ccc([N+](=O)[O-])s2)nc(N2CCOCC2)n1
- GI50 (MDA-MB-231 breast): 5.55 µM
- TGI (MDA-MB-231 breast): 19.1 µM
- GI50 (T-47D breast): 8.98 µM
- TGI (T-47D breast): 28.1 µM
- GI50 (NCI-H226 lung): 16 µM
- TGI (NCI-H226 lung): 46.2 µM
- GI50 (HS 578T breast): 25.6 µM
- TGI (HS 578T breast): > 100 µM
- GI50 (HL-60(TB) leukemia): 6.45 µM
- TGI (HL-60(TB) leukemia): 26.2 µM
- GI50 (SK-MEL-2 melanoma): 17.4 µM
- TGI (SK-MEL-2 melanoma): 44.7 µM
- GI50 (HOP-92 NSCLC): 13.2 µM
- TGI (HOP-92 NSCLC): 28.1 µM
- GI50 (OVCAR-3 ovarian): 15.2 µM
- TGI (OVCAR-3 ovarian): 37.5 µM
- GI50 (RPMI-8226 leukemia): 3.45 µM
- TGI (RPMI-8226 leukemia): 17.6 µM
- GI50 (OVCAR-4 ovarian): 2.65 µM
- TGI (OVCAR-4 ovarian): 15.3 µM
- GI50 (KM12 colon): 3.5 µM
- TGI (KM12 colon): 16.5 µM
- GI50 (SF-268 CNS): 8.24 µM
- TGI (SF-268 CNS): 22 µM
- GI50 (SK-OV-3 ovarian): 16.3 µM
- TGI (SK-OV-3 ovarian): 43 µM
- GI50 (UACC-257 melanoma): 10.7 µM
- TGI (UACC-257 melanoma): 23.1 µM
- GI50 (786-0 renal): 15.8 µM
- TGI (786-0 renal): 30.1 µM
- GI50 (UO-31 renal): 14.9 µM
- TGI (UO-31 renal): 30.1 µM
- GI50 (NCI-H23 lung): 10.2 µM
- TGI (NCI-H23 lung): 22.7 µM
- GI50 (PC-3 prostate): 11.5 µM
- TGI (PC-3 prostate): 28.1 µM
- GI50 (A549 NSCLC): 16.1 µM
- TGI (A549 NSCLC): 32.6 µM
- GI50 (DU-145 prostate): 11 µM
- TGI (DU-145 prostate): 26.7 µM
- GI50 (LOX IMVI melanoma): 2.12 µM
- TGI (LOX IMVI melanoma): 9.52 µM
- GI50 (SNB-75 CNS): 13.8 µM
- TGI (SNB-75 CNS): 34.2 µM
- GI50 (COLO 205 colon): 2.08 µM
- TGI (COLO 205 colon): 5.09 µM
- GI50 (MCF7 breast): 5.77 µM
- TGI (MCF7 breast): 19.5 µM
- GI50 (SN12C renal): 13 µM
- TGI (SN12C renal): 26.4 µM
- GI50 (HOP-62 NSCLC): 17.8 µM
- TGI (HOP-62 NSCLC): 32.9 µM
- GI50 (NCI-H460 lung): 13.7 µM
- TGI (NCI-H460 lung): 26.6 µM
- GI50 (HCT-116 colon): 2.98 µM
- TGI (HCT-116 colon): 10.9 µM
- GI50 (SK-MEL-5 melanoma): 5.84 µM
- TGI (SK-MEL-5 melanoma): 19.1 µM
- GI50 (SR leukemia): 5.14 µM
- TGI (SR leukemia): 20.3 µM
- GI50 (SF-295 CNS): 36.4 µM
- TGI (SF-295 CNS): > 100 µM
- GI50 (ACHN renal): 5.06 µM
- TGI (ACHN renal): 17.7 µM
- GI50 (NCI/ADR-RES ovarian): 12.7 µM
- TGI (NCI/ADR-RES ovarian): 33.3 µM
- GI50 (RXF 393 renal): 11.1 µM
- TGI (RXF 393 renal): 26.2 µM
- GI50 (CCRF-CEM leukemia): 3.33 µM
- TGI (CCRF-CEM leukemia): 16.9 µM
- GI50 (MDA-MB-435): 8.19 µM
- TGI (MDA-MB-435): 22.8 µM
- GI50 (HCC-2998 colon): 5.18 µM
- TGI (HCC-2998 colon): 16.7 µM
- GI50 (BT-549 breast): 9.29 µM
- TGI (BT-549 breast): 26.9 µM
- GI50 (MOLT-4 leukemia): 11.1 µM
- TGI (MOLT-4 leukemia): 42.1 µM
- GI50 (IGROV1 ovarian): 4.93 µM
- TGI (IGROV1 ovarian): 19.8 µM
- GI50 (SK-MEL-28 melanoma): 17.9 µM
- TGI (SK-MEL-28 melanoma): 38.2 µM
- GI50 (CAKI-1 renal): 19.7 µM
- TGI (CAKI-1 renal): 39.6 µM
- GI50 (OVCAR-5 ovarian): 22.2 µM
- TGI (OVCAR-5 ovarian): 37.2 µM
- GI50 (EKVX NSCLC): 17.8 µM
- TGI (EKVX NSCLC): 56.8 µM
- GI50 (K-562 leukemia): 7.71 µM
- TGI (K-562 leukemia): 24.7 µM
- GI50 (A498 renal): 9 µM
- TGI (A498 renal): 22.7 µM
- GI50 (NCI-H522 lung): 4.57 µM
- TGI (NCI-H522 lung): 17.1 µM
- GI50 (SF-539 CNS): 19.7 µM
- TGI (SF-539 CNS): 46.3 µM
- GI50 (UACC-62 melanoma): 7.08 µM
- TGI (UACC-62 melanoma): 19.7 µM
- GI50 (M14 melanoma): 10.5 µM
- TGI (M14 melanoma): 24.7 µM
- GI50 (SW-620 colon): 13.9 µM
- TGI (SW-620 colon): > 100 µM
- GI50 (OVCAR-8 ovarian): 13.7 µM
- TGI (OVCAR-8 ovarian): > 100 µM
- GI50 (TK-10 renal): 22 µM
- TGI (TK-10 renal): 46.9 µM
- GI50 (SNB-19 CNS): 23.3 µM
- TGI (SNB-19 CNS): 69.5 µM
